The results in this text go back to ChEMBL document CHEMBL1124870, “2-(4-Amino-4-carboxybutyl)aziridine-2-carboxylic acid. A potent irreversible inhibitor of diaminopimelic acid epimerase. Spontaneous formation from alpha-(halomethyl)diaminopimelic acids” (J Med Chem, 1990).

Series [1] in a line: Dissociation constant value of the compound. The format is physicochemical. Conditions: read-out: Ki/ki.
The test system of series [2] is Escherichia coli. Briefly: Concentration at which first-order inactivation was observed by the inhibition of Diaminopimelate epimerase.
Series [3] can be described thus: Rate of formation of aziridine under physiological conditions. Format: ADME.

For `NC(CCCC1(C(=O)O)CN1)C(=O)O` (stereo unspecified), in series [1], the Kd stood at 5.5 µM. Also, the Concentration in series [2] was 2 µM.
For `NC(CCCC(N)(CF)C(=O)O)C(=O)O` (stereo unspecified), in series [3], the k0 amounted to 0.000079 min⁻¹ and the kik0/Ki is on record as 0.0000145 uM-1 min**-2.
In the case of `NC(CCCC(N)(CCl)C(=O)O)C(=O)O` (stereo unspecified), in series [3], the k0 amounted to 0.011 min⁻¹ and the kik0/Ki is 0.002 µM-1 min··-2.
